The target of the assay is T1, human vasopressin V2 receptor subtype (Homo sapiens, UniProt P30518).
T1 construct: host or cells: CHO cells (pZeoSV vector)
T1 sequence (P30518 whole entry): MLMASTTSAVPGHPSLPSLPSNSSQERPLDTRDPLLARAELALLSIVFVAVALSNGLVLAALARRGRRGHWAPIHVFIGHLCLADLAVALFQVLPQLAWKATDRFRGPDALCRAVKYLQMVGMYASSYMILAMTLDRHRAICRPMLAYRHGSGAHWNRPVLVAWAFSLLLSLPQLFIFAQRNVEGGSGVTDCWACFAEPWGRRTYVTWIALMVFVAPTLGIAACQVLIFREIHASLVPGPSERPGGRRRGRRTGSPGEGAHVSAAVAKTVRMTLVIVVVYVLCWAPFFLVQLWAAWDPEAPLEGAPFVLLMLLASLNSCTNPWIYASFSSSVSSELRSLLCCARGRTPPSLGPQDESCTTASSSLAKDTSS
Briefly: Vasopressin binding in Chinese Hamster Ovary cell membranes expressing human vasopressin V2 subtype receptors. The settings on record: 100 nM, CHO cell membranes, [3H]arginine vasopressin, values without parentheses. Put shortly: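 Radioligand displacement on membranes from CHO cells stably expressing human V2 receptor, 25 to 50 μg protein/well, in 50 mM Tris-HCl pH 7.4 with MgCl2, BSA and protease inhibitors. [^3H]arginine vasopressin (8 nM working solution) incubated 60 min at room temperature; bound label measured by filtration and scintillation counting.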
`COc1cc(C(=O)N2Cc3ccc(C(=O)N(C)C4CCN(C)CC4)n3Cc3ccccc32)ccc1-c1cccc2ccccc12` [Example 182, 10-[3-Methoxy-4-(1-naphthyl)benzoyl]-N-methyl-N-(1-methyl-4-piperidinyl)-10,11-dihydro-5H-pyrrolo[2,1-c][1,4]benzodiazepine-3-carboxamide]: the inhibition – broadly, the change of the read-out against control, counted positive when it falls – at 0.1 µM is 35%.

Regarding `Cc1cc(C(=O)N2Cc3ccc(C(=O)N(C)C4CCN(C)CC4)n3Cc3ccccc32)ccc1-c1ccccc1C(F)(F)F` [Example 184, N-Methyl-N-(1-methyl-4-piperidinyl)-10-{[2-methyl-2′-(trifluoromethyl)[1,1′-biphenyl]-4-yl]carbonyl}-10,11-dihydro-5H-pyrrolo[2,1-c][1,4]benzodiazepine-3-carboxamide], the inhibition at 0.1 µM is 9%.

As for `COc1cc(C(=O)N2Cc3ccc(C(=O)N(C)C4CCN(C)C4)n3Cc3ccccc32)ccc1-c1cccc2ccccc12` (stereo not shown) [Example 192, 10-[3-Methoxy-4-(1-naphthyl)benzoyl]-N-methyl-N-(1-methyl-3-pyrrolidinyl)-10,11-dihydro-5H-pyrrolo[2,1-c][1,4]benzodiazepine-3-carboxamide], the inhibition at 0.1 µM was 28%.

Take `C=CCN1CCN(C(=O)c2ccc3n2Cc2ccccc2N(C(=O)c2ccc(-c4ccccc4C)c(OC)c2)C3)CC1` [Example 225, (4-Allyl-1-piperazinyl){10-[(2-methoxy-2′-methyl[1,1′-biphenyl]-4-yl)carbonyl]-10,11-dihydro-5H-pyrrolo[2,1-c][1,4]benzodiazepin-3-yl}methanone]: the inhibition at 0.1 µM was -4%.

With `COc1cccc(-c2ccc(C(=O)N3Cc4ccc(C(=O)NCCN5CCCCC5)n4Cc4ccccc43)cc2OC)c1` [Example 159, 10-[(2,3′-Dimethoxy[1,1′-biphenyl]-4-yl)carbonyl]-N-[2-(1-piperidinyl)ethyl]-10,11-dihydro-5H-pyrrolo[2,1-c][1,4]benzodiazepine-3-carboxamide], the inhibition at 0.1 µM is 16%.

As to `Cc1ccccc1-c1ccc(C(=O)N2Cc3ccc(C(=O)NCCC4CCCN4C)n3Cc3ccccc32)cc1` (stereo not shown) [Example 166, 10-[(2′-Methyl[1,1′-biphenyl]-4-yl)carbonyl]-N-[2-(1-methyl-2-pyrrolidinyl)ethyl]-10,11-dihydro-5H-pyrrolo[2,1-c][1,4]benzodiazepine-3-carboxamide], the inhibition at 0.1 µM turned out to be 3%.

Regarding `COc1cc(-c2ccccc2C)c(Cl)cc1C(=O)N1Cc2ccc(C(=O)NCCC3CCCN3C)n2Cc2ccccc21` (stereo not shown) [Example 168, 10-[(6-Chloro-3-methoxy-2′-methyl[1,1′-biphenyl]-4-yl)carbonyl]-N-[2-(1-methyl-2-pyrrolidinyl)ethyl]-10,11-dihydro-5H-pyrrolo[2,1-c][1,4]benzodiazepine-3-carboxamide], the inhibition at 0.1 µM is 10%.

As for `O=C(NCCN1CCCCC1)c1ccc2n1Cc1ccccc1N(C(=O)c1ccc(-c3cccc4ccccc34)cc1Cl)C2` [Example 160, 10-[2-Chloro-4-(1-naphthyl)benzoyl]-N-[2-(1-piperidinyl)ethyl]-10,11-dihydro-5H-pyrrolo[2,1-c][1,4]benzodiazepine-3-carboxamide], the inhibition at 0.1 µM turned out to be 24%.

Take `C=CCN1CCN(C(=O)c2ccc3n2Cc2ccccc2N(C(=O)c2ccc(-c4cccc(OC)c4)c(OC)c2)C3)CC1` [Example 228, (4-Allyl-1-piperazinyl){10-[(2,3′-dimethoxy[1,1′-biphenyl]-4-yl)carbonyl]-10,11-dihydro-5H -pyrrolo[2,1-c][1,4]benzodiazepin-3-yl}methanone]: the inhibition at 0.1 µM turned out to be 20%.

Take `COc1ccccc1-c1ccc(C(=O)N2Cc3ccc(C(=O)NCCC4CCCN4C)n3Cc3ccccc32)cc1` (stereo not shown) [Example 165, 10-[(2′-Methoxy[1,1′-biphenyl]-4-yl)carbonyl]-N-[2-(1-methyl-2-pyrrolidinyl)ethyl]-10,11-dihydro-5H-pyrrolo[2,1-c][1,4]benzodiazepine-3-carboxamide]: the inhibition at 0.1 µM worked out at 25%.

Take `COc1ccccc1-c1ccc(C(=O)N2Cc3ccc(C(=O)N4CCN(C(C)C)CC4)n3Cc3ccccc32)cc1C` [Example 232, (4-Isopropyl-1-piperazinyl){10-[(2′-methoxy-2-methyl[1,1′-biphenyl]-4-yl)carbonyl]-10,11-dihydro-5H-pyrrolo[2,1-c][1,4]benzodiazepin-3-yl}methanone]: the inhibition at 0.1 µM worked out at 4%.

`Cc1ccccc1-c1ccc(C(=O)N2Cc3ccc(C(=O)N4CCN(CCN5CCOCC5)CC4)n3Cc3ccccc32)cc1` [Example 209, {10-[(2′-Methyl[1,1′-biphenyl]-4-yl)carbonyl]-10,11-dihydro-5H-pyrrolo[2,1-c][1,4]benzodiazepin-3-yl}{4-[2-(4-morpholinyl)ethyl]-1-piperazinyl}methanone]: the inhibition at 0.1 µM worked out at 10%.

As to `COc1cc(C(=O)N2Cc3ccc(C(=O)NCCN4CCCCC4)n3Cc3ccccc32)ccc1-c1cccc2ccccc12` [Example 157, 10-[3-Methoxy-4-(1-naphthyl)benzoyl]-N-[2-(1-piperidinyl)ethyl]-10,11-dihydro-5H-pyrrolo[2,1-c][1,4]benzodiazepine-3-carboxamide], the inhibition at 0.1 µM came to 23%.

With `COc1ccccc1-c1ccc(C(=O)N2Cc3ccc(C(=O)N4CCN(CCN(C)C)CC4)n3Cc3ccccc32)cc1OC` [Example 204, {10-[(2,2′-Dimethoxy[1,1′-biphenyl]-4-yl)carbonyl]-10,11-dihydro-5H-pyrrolo[2,1-c][1,4]benzodiazepin-3-yl}{4-[2-(dimethylamino)ethyl]-1-piperazinyl}methanone], the inhibition at 0.1 µM is 6%.

Regarding `C=CCN1CCN(C(=O)c2ccc3n2Cc2ccccc2N(C(=O)c2ccc(-c4cccc5ccccc45)cc2Cl)C3)CC1` [Example 229, (4-Allyl-1-piperazinyl){10-[2-chloro-4-(1-naphthyl)benzoyl]-10,11-dihydro-5H-pyrrolo[2,1-c][1,4]benzodiazepin-3-yl}methanone], the inhibition at 0.1 µM was 27%.

As to `COc1ccccc1-c1ccc(C(=O)N2Cc3ccc(C(=O)NCCC4CCCN4C)n3Cc3ccccc32)cc1OC` (stereo not shown) [Example 171, 10-[(2,2′-Dimethoxy[1,1′-biphenyl]-4-yl)carbonyl]-N-[2-(1-methyl-2-pyrrolidinyl)ethyl]-10,11-dihydro-5H-pyrrolo[2,1-c][1,4]benzodiazepine-3-carboxamide], the inhibition at 0.1 µM is 14%.

`COc1cccc(-c2ccc(C(=O)N3Cc4ccc(C(=O)N5CCN(CCN6CCOCC6)CC5)n4Cc4ccccc43)cc2OC)c1` [Example 211, {10-[(2,3′-Dimethoxy[1,1′-biphenyl]-4-yl)carbonyl]-10,11-dihydro-5H-pyrrolo[2,1-c][1,4]benzodiazepin-3-yl}{4-[2-(4-morpholinyl)ethyl]-1-piperazinyl}methanone]: the inhibition at 0.1 µM came out at 23%.

With `Cc1ccccc1-c1ccc(C(=O)N2Cc3ccc(C(=O)N4CCN(CCN(C)C)CC4)n3Cc3ccccc32)cc1` [Example 200, {4-[2-(Dimethylamino)ethyl]-1-piperazinyl}{10-[(2′-methyl[1,1′-biphenyl]-4-yl)carbonyl]-10,11-dihydro-5H-pyrrolo[2,1-c][1,4]benzodiazepin-3-yl}methanone], the inhibition at 0.1 µM turned out to be 10%.

In the case of `COc1cc(C(=O)N2Cc3ccc(C(=O)N(C)C4CCN(C)C4)n3Cc3ccccc32)ccc1-c1ccccc1C` (stereo not shown) [Example 189, 10-[(2-Methoxy-2′-methyl[1,1′-biphenyl]-4-yl)carbonyl]-N-methyl-N-(1-methyl-3-pyrrolidinyl)-10,11-dihydro-5H-pyrrolo[2,1-c][1,4]benzodiazepine-3-carboxamide], the inhibition at 0.1 µM came out at 22%.

For `COc1cccc(-c2ccc(C(=O)N3Cc4ccc(C(=O)N(C)C5CCN(C)C5)n4Cc4ccccc43)cc2C)c1` (stereo not shown) [Example 186, 10-[(3′-Methoxy-2-methyl[1,1′-biphenyl]-4-yl)carbonyl]-N-methyl-N-(1-methyl-3-pyrrolidinyl)-10,11-dihydro-5H-pyrrolo[2,1-c][1,4]benzodiazepine-3-carboxamide], the inhibition at 0.1 µM came out at 8%.

`COc1ccccc1-c1ccc(C(=O)N2Cc3ccc(C(=O)N(C)C4CCN(C)C4)n3Cc3ccccc32)cc1C` (stereo not shown) [Example 185, 10-[(2′-Methoxy-2-methyl[1,1′-biphenyl]-4-yl)carbonyl]-N-methyl-N-(1-methyl-3-pyrrolidinyl)-10,11-dihydro-5H-pyrrolo[2,1-c][1,4]benzodiazepine-3-carboxamide]: the inhibition at 0.1 µM was 27%.

As to `Cc1cc(C(=O)N2Cc3ccc(C(=O)N4CCN(C(C)C)CC4)n3Cc3ccccc32)ccc1-c1ccccc1C(F)(F)F` [Example 240, (4-Isopropyl-1-piperazinyl)(10-{[2-methyl-2′-(trifluoromethyl)[1,1′-biphenyl]-4-yl]carbonyl}-10,11-dihydro-5H-pyrrolo[2,1-c][1,4]benzodiazepin-3-yl)methanone], the inhibition at 0.1 µM came to 9%.

As to `COc1ccccc1-c1ccc(C(=O)N2Cc3ccc(C(=O)N(C)C4CCN(C)CC4)n3Cc3ccccc32)cc1` [Example 177, 10-[(2′-Methoxy[1,1′-biphenyl]-4-yl)carbonyl]-N-methyl-N-(1-methyl-4-piperidinyl)-10,11-dihydro-5H-pyrrolo[2,1-c][1,4]benzodiazepine-3-carboxamide], the inhibition at 0.1 µM stood at 18%.

As to `C=CCN1CCN(C(=O)c2ccc3n2Cc2ccccc2N(C(=O)c2ccc(-c4cccc5ccccc45)c(OC)c2)C3)CC1` [Example 231, (4-Allyl-1-piperazinyl){10-[3-methoxy-4-(1-naphthyl)benzoyl]-10,11-dihydro-5H -pyrrolo[2,1-c][1,4]benzodiazepin-3-yl}methanone], the inhibition at 0.1 µM was -5%.

As for `Cc1ccccc1-c1ccc(C(=O)N2Cc3ccc(C(=O)N4CCN(C(C)C)CC4)n3Cc3ccccc32)cc1C` [Example 233, {10-[(2,2′-Dimethyl[1,1′-biphenyl]-4-yl)carbonyl]-10,11-dihydro-5H-pyrrolo[2,1-c][1,4]benzodiazepin-3-yl}(4-isopropyl-1-piperazinyl)methanone], the inhibition at 0.1 µM came to 23%.
